These results are taken from patent publication US8158628B2, “Sulfonylated 1,2,3,4-tetrahydropyrrolo[1,2-a]pyrazine compounds and their use as pharmaceuticals” (Gruenenthal GmbH, priority 2009, dated 2012).

Broadly, the inhibition is the change of the read-out against control, counted positive when it falls.

The target of the assay is T1, B1R of the rat (Rattus norvegicus, UniProt P97583).
T1 construct: expressed in transfected cells; host or cells: CHO K1 cells (Chinese hamster ovary), stably transfected
T1 sequence (P97583 1-337): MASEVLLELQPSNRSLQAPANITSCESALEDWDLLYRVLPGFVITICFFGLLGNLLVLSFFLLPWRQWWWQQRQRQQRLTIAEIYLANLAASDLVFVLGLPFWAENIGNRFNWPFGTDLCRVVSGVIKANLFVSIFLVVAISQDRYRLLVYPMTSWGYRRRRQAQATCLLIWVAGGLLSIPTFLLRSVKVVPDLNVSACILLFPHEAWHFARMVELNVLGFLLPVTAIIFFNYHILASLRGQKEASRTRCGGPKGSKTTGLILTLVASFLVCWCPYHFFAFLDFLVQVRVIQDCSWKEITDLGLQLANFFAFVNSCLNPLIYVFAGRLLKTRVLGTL
Kind of assay: FLIPR Ca2+ functional assay, B1R antagonism, rat B1R in CHO K1 cells. It counts as cell-based. To be noted: test substance 10 μM; rB1R CHO K1 cells; agonist Des-Arg9 bradykinin at EC80; % of maximum achievable inhibition. The protocol: The agonistic or antagonistic action of substances on the bradykinin 1 receptor (B1R) of the human and rat species can be quantified with ectopically expressing cell lines (CHO K1 cells) and with the aid of a Ca^2+-sensitive dye (Fluo-4) using a fluorescent imaging plate reader (FLIPR). The value in % activation is based on the Ca^2+ signal after addition of Lys-Des-Arg^9 bradykinin (0.5 nM) or Des-Arg^9 bradykinin (100 nM). Antagonists lead to a suppression of the Ca^2+ influx following administration of the agonist. The % inhibition in comparison with the maximum achievable inhibition is indicated.
1. Functional Investigation on the Bradykinin 1 Receptor (B1R) The agonistic or antagonistic action of substances can be determined on the bradykinin 1 receptor (B1R) of the human and rat species with the following assay. According to this assay, the Ca^2+ inflow through the channel is quantified with the aid of a Ca^2+-sensitive dye (Fluo-4 type, Molecular Probes Europe BV, Leiden, Netherlands) in a fluorescent imaging plate reader (FLIPR, Molecular Devices, Sunnyvale, USA). 2. Method: Chinese hamster ovary cells (CHO K1 cells) which are stably transfected with the human B1R gene (hB1R cells) or the B1R gene of the rat (rB1R cells) are used. For functional investigations these cells are plated-out onto black 96-well plates with a clear base (BD Biosciences, Heidelberg, Germany or Greiner, Frickenhausen, Germany) in a density of 20,000-35,000 cells/well. Overnight the cells are incubated at 37° C. and 5% CO2 in culture medium (hB1R cells: Ham's Nutrient Mixture F12, Gibco Invitrogen GmbH, Karlsruhe, Germany or DMEM, Sigma-Aldrich, Taufkirchen, Germany; rB1R cells: D-MEM/F12, Gibco Invitrogen, Karlsruhe, Germany) with 10 vol. % FBS (foetal bovine serum, Gibco Invitrogen GmbH, Karlsruhe, Germany or PAN Biotech GmbH, Aidenbach, Germany).
On the following day the cells are loaded with 2.13 μM Fluo-4 (Molecular Probes Europe BV, Leiden, Netherlands) in HBSS buffer (Hank's buffered saline solution, Gibco Invitrogen GmbH, Karlsruhe, Germany) with 2.5 mM probenecid (Sigma-Aldrich, Taufkirchen, Germany) and 10 mM HEPES (Sigma-Aldrich, Taufkirchen, Germany) for 60 min at 37° C. The plates are subsequently washed twice with HBSS buffer, and HBSS buffer which additionally contains 0.1% BSA (bovine serum albumin; Sigma-Aldrich, Taufkirchen, Germany), 5.6 mM glucose and 0.05% gelatine (Merck KGaA, Darmstadt, Germany) is added. After a further incubation of 20 minutes at RT, the plates are inserted into the FLIPR for Ca^2+ measurement. Alternatively they are washed with buffer A (15 mM HEPES, 80 mM NaCl, 5 mM KCl, 1.2 mM CaCl2, 0.7 mM MgSO4, 2 g/l glucose, 2.5 mM probenecid) and loaded with buffer A with added 2.5 μM Fluo-4 and 0.025% Pluronic F127 (Sigma-Aldrich, Taufkirchen, Germany). The cells are then washed twice with buffer A and incubated for 30 minutes with buffer A, which additionally contains 0.05% BSA and 0.05% gelatine, at RT and then used for Ca^2+ measurement in the FLIPR. The Ca^2+-dependent fluorescence is measured here before and after addition of substances (λex=488 nm, λem=540 nm). The quantification is performed by measuring the highest fluorescence intensity (FC, fluorescence counts) over time.
The FLIPR protocol comprises two additions of substance. Test substances (10 μM) are first pipetted onto the cells and the Ca^2+ inflow is compared with the control (hB1R: Lys-Des-Arg^9 bradykinin >=50 nM; rB1R: Des-Arg^9 bradykinin 10 μM). The value in % activation based on the Ca^2+ signal after addition of Lys-Des-Arg^9 bradykinin (>=50 nM) or Des-Arg^9 bradykinin (10 μM) is obtained therefrom. After incubation for 10-20 minutes, Lys-Des-Arg^9 bradykinin (hB1R) or Des-Arg^9 bradykinin (rB1R) is applied in the EC80 concentration and the inflow of Ca^2+ is likewise determined.
Antagonists lead to a suppression of the Ca^2+ inflow. The % inhibition in comparison with the maximum achievable inhibition is calculated. […]
For `Cc1cccc(Cl)c1S(=O)(=O)N1CCn2cccc2C1COCC(=O)N1CCC2(CC1)CCN(c1ccncc1)C2` (stereo not drawn) [Example 14, 2-((2-(2-Chloro-6-methylphenylsulfonyl)-1,2,3,4-tetrahydropyrrolo[1,2-a]pyrazin-1-yl)methoxy)-1-(2-(pyridin-4-yl)-2,8-diazaspiro[4.5]decan-8-yl)ethanone], the inhibition at 10 µM is 109%.

Turning to `O=C(CC1c2cccn2CCN1S(=O)(=O)c1ccc(C(F)(F)F)cc1Cl)N1CCCCC1` (stereo not drawn) [Example 19, 2-(2-(2-Chloro-4-(trifluoromethyl)phenylsulfonyl)-1,2,3,4-tetrahydropyrrolo[1,2-a]pyrazin-1-yl)-1-(piperidin-1-yl)ethanone], the inhibition at 10 µM was -7.98%.

`O=C(CC1c2cccn2CCN1S(=O)(=O)c1ccc(C(F)(F)F)cc1Cl)N1CCc2ccccc2C1` (stereo not drawn) [Example 20, 2-(2-(2-Chloro-4-(trifluoromethyl)phenylsulfonyl)-1,2,3,4-tetrahydropyrrolo[1,2-a]pyrazin-1-yl)-1-(3,4-dihydroisoquinolin-2(1H)-yl)ethanone]: the inhibition at 10 µM worked out at 30.7%.

Turning to `COc1cc(C)c(S(=O)(=O)N2CCn3cccc3C2CC(=O)N2CCC(O)(c3cccnc3)CC2)c(C)c1` (stereo not drawn) [Example 141, 1-(4-Hydroxy-4-pyridin-3-yl-piperidin-1-yl)-2-[2-[(4-methoxy-2,6-dimethyl-phenyl)sulfonyl]-1,2,3,4-tetrahydro-pyrrolo[1,2-a]pyrazin-1-yl]ethanone], the inhibition at 10 µM came out at 37.8%.

As for `COc1cc(C)c(S(=O)(=O)N2CCn3cccc3C2CC(=O)NCCCN2CCOCC2)c(C)c1` (stereo not drawn) [Example 142, 2-[2-[(4-Methoxy-2,6-dimethyl-phenyl)sulfonyl]-1,2,3,4-tetrahydro-pyrrolo[1,2-a]pyrazin-1-yl]-N-(3-morpholin-4-yl-propyl)-acetamide], the inhibition at 10 µM came to 37.9%.

Take `COc1cc(C)c(S(=O)(=O)N2CCn3cccc3C2CC(=O)NCCCN2C(C)CCCC2C)c(C)c1` (stereo not drawn) [Example 143, N-[3-(2,6-Dimethyl-piperidin-1-yl)-propyl]-2-[2-[(4-methoxy-2,6-dimethyl-phenyl)sulfonyl]-1,2,3,4-tetrahydro-pyrrolo[1,2-a]pyrazin-1-yl]-acetamide]: the inhibition at 10 µM came out at 37.4%.

As to `COc1cc(C)c(S(=O)(=O)N2CCn3cccc3C2CC(=O)N2CCN(c3ccccc3F)CC2)c(C)c1` (stereo not drawn) [Example 144, 1-[4-(2-Fluorophenyl)-piperazin-1-yl]-2-[2-[(4-methoxy-2,6-dimethyl-phenyl)sulfonyl]-1,2,3,4-tetrahydro-pyrrolo[1,2-a]pyrazin-1-yl]-ethanone], the inhibition at 10 µM was determined as 70.3%.

Take `COc1cc(C)c(S(=O)(=O)N2CCn3cccc3C2CC(=O)N2CCN(c3ccccc3)CC2)c(C)c1` (stereo not drawn) [Example 145, 2-[2-[(4-Methoxy-2,6-dimethyl-phenyl)sulfonyl]-1,2,3,4-tetrahydro-pyrrolo[1,2-a]pyrazin-1-yl]-1-(4-phenyl-piperazin-1-yl)-ethanone]: the inhibition at 10 µM is 57.7%.

For `COc1cc(C)c(S(=O)(=O)N2CCn3cccc3C2CC(=O)N2CCC(CCN3CCCCC3)CC2)c(C)c1` (stereo not drawn) [Example 146, 2-[2-[(4-Methoxy-2,6-dimethyl-phenyl)sulfonyl]-1,2,3,4-tetrahydro-pyrrolo[1,2-a]pyrazin-1-yl]-1-[4-(2-piperidin-1-yl-ethyl)-piperidin-1-yl]-ethanone], the inhibition at 10 µM was determined as 73.5%.

For `COc1cc(C)c(S(=O)(=O)N2CCn3cccc3C2CC(=O)N2CCN(CCn3c(C)ccc3C)CC2)c(C)c1` (stereo not drawn) [Example 147, 1-[4-[2-(2,5-Dimethyl-1H-pyrrol-1-yl)-ethyl]-piperazin-1-yl]-2-[2-[(4-methoxy-2,6-dimethyl-phenyl)sulfonyl]-1,2,3,4-tetrahydro-pyrrolo[1,2-a]pyrazin-1-yl]-ethanone], the inhibition at 10 µM stood at 86.5%.

As to `COc1cc(C)c(S(=O)(=O)N2CCn3cccc3C2CC(=O)N2CCC(c3nc4cc(C)ccc4[nH]3)CC2)c(C)c1` (stereo not drawn) [Example 148, 2-[2-[(4-Methoxy-2,6-dimethyl-phenyl)sulfonyl]-1,2,3,4-tetrahydro-pyrrolo[1,2-a]pyrazin-1-yl]-1-[4-(5-methyl-1H-benzoimidazol-2-yl)-piperidin-1-yl]-ethanone], the inhibition at 10 µM was 70.4%.

For `COc1cc(C)c(S(=O)(=O)N2CCn3cccc3C2CC(=O)N2CCN(c3ccccn3)CC2)c(C)c1` (stereo not drawn) [Example 149, 2-[2-[(4-Methoxy-2,6-dimethyl-phenyl)sulfonyl]-1,2,3,4-tetrahydro-pyrrolo[1,2-a]pyrazin-1-yl]-1-(4-pyridin-2-yl-piperazin-1-yl)-ethanone], the inhibition at 10 µM came to 68.9%.

As to `COc1cc(C)c(S(=O)(=O)N2CCn3cccc3C2CC(=O)N2CCCN(c3ncccc3C#N)CC2)c(C)c1` (stereo not drawn) [Example 150, 2-[4-[2-[2-[(4-Methoxy-2,6-dimethyl-phenyl)sulfonyl]-1,2,3,4-tetrahydro-pyrrolo[1,2-a]pyrazin-1-yl]-acetyl]-[1,4]diazepan-1-yl]-pyridine-3-carbonitrile], the inhibition at 10 µM stood at 50.3%.

As to `COc1cc(C)c(S(=O)(=O)N2CCn3cccc3C2CC(=O)NCC2CCN(Cc3ccccc3)C2)c(C)c1` (stereo not drawn) [Example 151, N-[(1-Benzyl-pyrrolidin-3-yl)-methyl]-2-[2-[(4-methoxy-2,6-dimethyl-phenyl)sulfonyl]-1,2,3,4-tetrahydro-pyrrolo[1,2-a]pyrazin-1-yl]-acetamide], the inhibition at 10 µM turned out to be 104%.

As for `COc1cc(C)c(S(=O)(=O)N2CCn3cccc3C2CC(=O)N2CCN(c3ccc(C(F)(F)F)cn3)CC2)c(C)c1` (stereo not drawn) [Example 152, 2-[2-[(4-Methoxy-2,6-dimethyl-phenyl)sulfonyl]-1,2,3,4-tetrahydro-pyrrolo[1,2-a]pyrazin-1-yl]-1-[4-[5-(trifluoromethyl)-pyridin-2-yl]-piperazin-1-yl]-ethanone], the inhibition at 10 µM was 50.9%.

For the compound `Cc1cccc(Cl)c1S(=O)(=O)N1CCn2cccc2C1CC(=O)NCCN1CCCC1` (stereo not drawn) [Example 153, 2-[2-[(2-Chloro-6-methyl-phenyl)sulfonyl]-1,2,3,4-tetrahydro-pyrrolo[1,2-a]pyrazin-1-yl]-N-(2-pyrrolidin-1-yl-ethyl)-acetamide], the inhibition at 10 µM is 15.8%.

For `Cc1cccc(Cl)c1S(=O)(=O)N1CCn2cccc2C1CC(=O)NCCCN1CCOCC1` (stereo not drawn) [Example 154, 2-[2-[(2-Chloro-6-methyl-phenyl)sulfonyl]-1,2,3,4-tetrahydro-pyrrolo[1,2-a]pyrazin-1-yl]-N-(3-morpholin-4-yl-propyl)-acetamide], the inhibition at 10 µM is 41.9%.

`Cc1cccc(Cl)c1S(=O)(=O)N1CCn2cccc2C1CC(=O)NCCCN1C(C)CCCC1C` (stereo not drawn) [Example 155, 2-[2-[(2-Chloro-6-methyl-phenyl)sulfonyl]-1,2,3,4-tetrahydro-pyrrolo[1,2-a]pyrazin-1-yl]-N-[3-(2,6-dimethyl-piperidin-1-yl)-propyl]-acetamide]: the inhibition at 10 µM is 61.5%.
